{
  "source": "ChEMBL document CHEMBL4804284",
  "parameters_in_all_cases": "scale not given: the % may be the effect or the level left",
  "key": {"[1]": {"molecular_target": "Ribosomal protein S6 kinase alpha-2 (Homo sapiens) (UniProt Q15349)", "sequence (Q15349 whole entry, the tested form may be a part)": "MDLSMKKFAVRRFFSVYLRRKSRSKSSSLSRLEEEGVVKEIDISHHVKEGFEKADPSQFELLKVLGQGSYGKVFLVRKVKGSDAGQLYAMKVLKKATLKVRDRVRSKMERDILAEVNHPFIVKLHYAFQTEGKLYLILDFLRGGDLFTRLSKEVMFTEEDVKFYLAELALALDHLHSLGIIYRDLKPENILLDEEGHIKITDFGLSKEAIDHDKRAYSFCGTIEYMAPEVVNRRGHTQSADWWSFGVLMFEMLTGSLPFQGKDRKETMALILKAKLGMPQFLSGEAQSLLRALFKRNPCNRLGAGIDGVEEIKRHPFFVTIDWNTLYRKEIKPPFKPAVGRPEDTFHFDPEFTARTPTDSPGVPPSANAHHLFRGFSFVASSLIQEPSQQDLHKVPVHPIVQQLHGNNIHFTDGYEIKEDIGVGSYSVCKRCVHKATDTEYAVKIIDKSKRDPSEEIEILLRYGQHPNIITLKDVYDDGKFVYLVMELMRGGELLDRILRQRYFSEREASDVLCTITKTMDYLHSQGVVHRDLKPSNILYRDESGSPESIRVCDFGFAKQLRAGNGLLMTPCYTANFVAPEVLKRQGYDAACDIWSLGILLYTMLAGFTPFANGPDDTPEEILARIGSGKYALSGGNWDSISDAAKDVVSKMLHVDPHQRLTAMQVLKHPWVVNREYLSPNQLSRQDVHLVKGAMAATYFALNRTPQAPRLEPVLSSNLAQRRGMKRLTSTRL", "experiment": "Inhibition of DNA-tagged human C-terminal RSK3 kinase domain 2 assessed as percent of control at 50000 nM by qPCR analysis relative to control"}, "[2]": {"molecular_target": "Dual specificity mitogen-activated protein kinase kinase 6 (Homo sapiens) (UniProt P52564)", "experiment": "Inhibition of DNA-tagged human MEK6 assessed as percent of control at 50000 nM by qPCR analysis relative to control"}, "[3]": {"molecular_target": "Cyclin-dependent kinase 5 (Homo sapiens) (UniProt Q00535)", "experiment": "Inhibition of DNA-tagged human CDK5 assessed as percent of control at 50000 nM by qPCR analysis relative to control"}, "[4]": {"molecular_target": "Serine/threonine-protein kinase 17A (Homo sapiens) (UniProt Q9UEE5)", "experiment": "Inhibition of DNA-tagged human DRAK1 assessed as percent of control at 50000 nM by qPCR analysis relative to control"}, "[5]": {"tested_on": "Receptor-type tyrosine-protein kinase FLT3 (Homo sapiens), P36888 [R834Q]", "experiment": "Inhibition of DNA-tagged human FLT3 R834Q mutant assessed as percent of control at 50000 nM by qPCR analysis relative to control"}, "[6]": {"molecular_target": "Ephrin type-A receptor 1 (Homo sapiens) (UniProt P21709)", "sequence (P21709 whole entry)": "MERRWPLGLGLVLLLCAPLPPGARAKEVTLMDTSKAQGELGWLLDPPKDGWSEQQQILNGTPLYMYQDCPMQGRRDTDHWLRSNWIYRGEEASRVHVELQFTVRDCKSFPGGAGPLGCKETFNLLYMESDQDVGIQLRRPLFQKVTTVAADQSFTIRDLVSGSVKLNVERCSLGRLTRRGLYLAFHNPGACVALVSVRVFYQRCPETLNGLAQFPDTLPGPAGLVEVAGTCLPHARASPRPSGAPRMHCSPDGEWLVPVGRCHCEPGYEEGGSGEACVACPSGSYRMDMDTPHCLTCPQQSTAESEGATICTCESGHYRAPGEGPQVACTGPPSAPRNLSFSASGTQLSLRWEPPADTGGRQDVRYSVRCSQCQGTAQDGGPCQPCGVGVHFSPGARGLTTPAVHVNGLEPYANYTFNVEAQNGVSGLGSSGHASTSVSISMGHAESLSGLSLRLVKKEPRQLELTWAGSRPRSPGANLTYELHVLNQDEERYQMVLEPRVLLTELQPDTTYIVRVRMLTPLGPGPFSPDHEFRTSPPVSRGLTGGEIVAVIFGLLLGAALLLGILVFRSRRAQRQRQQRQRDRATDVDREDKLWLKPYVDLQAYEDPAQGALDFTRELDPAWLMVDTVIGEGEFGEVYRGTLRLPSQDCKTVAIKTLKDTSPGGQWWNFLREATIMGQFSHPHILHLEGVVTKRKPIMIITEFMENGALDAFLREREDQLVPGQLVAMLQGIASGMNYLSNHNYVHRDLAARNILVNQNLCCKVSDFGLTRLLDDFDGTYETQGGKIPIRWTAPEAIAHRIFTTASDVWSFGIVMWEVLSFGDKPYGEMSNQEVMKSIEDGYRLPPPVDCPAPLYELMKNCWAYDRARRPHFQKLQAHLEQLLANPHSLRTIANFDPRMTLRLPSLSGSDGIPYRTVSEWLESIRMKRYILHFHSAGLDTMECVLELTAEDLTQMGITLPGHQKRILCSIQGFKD", "experiment": "Inhibition of DNA-tagged human EPHA1 assessed as percent of control at 50000 nM by qPCR analysis relative to control"}, "[7]": {"tested_on": "Tyrosine-protein kinase ABL1 (Homo sapiens), P00519 [Q252H]", "experiment": "Inhibition of DNA-tagged phosphorylated human ABL1 Q252H mutant assessed as percent of control at 50000 nM by qPCR analysis relative to control"}, "[8]": {"tested_on": "Receptor-type tyrosine-protein kinase FLT3 (Homo sapiens), P36888 [K663Q]", "experiment": "Inhibition of DNA-tagged human FLT3 K663Q mutant assessed as percent of control at 50000 nM by qPCR analysis relative to control"}, "[9]": {"molecular_target": "Interferon-induced, double-stranded RNA-activated protein kinase (Homo sapiens) (UniProt P19525)", "experiment": "Inhibition of DNA-tagged human PRKR assessed as percent of control at 50000 nM by qPCR analysis relative to control"}, "[10]": {"molecular_target": "Cyclin-dependent kinase 17 (Homo sapiens) (UniProt Q00537)", "sequence (Q00537 whole entry, looked up)": "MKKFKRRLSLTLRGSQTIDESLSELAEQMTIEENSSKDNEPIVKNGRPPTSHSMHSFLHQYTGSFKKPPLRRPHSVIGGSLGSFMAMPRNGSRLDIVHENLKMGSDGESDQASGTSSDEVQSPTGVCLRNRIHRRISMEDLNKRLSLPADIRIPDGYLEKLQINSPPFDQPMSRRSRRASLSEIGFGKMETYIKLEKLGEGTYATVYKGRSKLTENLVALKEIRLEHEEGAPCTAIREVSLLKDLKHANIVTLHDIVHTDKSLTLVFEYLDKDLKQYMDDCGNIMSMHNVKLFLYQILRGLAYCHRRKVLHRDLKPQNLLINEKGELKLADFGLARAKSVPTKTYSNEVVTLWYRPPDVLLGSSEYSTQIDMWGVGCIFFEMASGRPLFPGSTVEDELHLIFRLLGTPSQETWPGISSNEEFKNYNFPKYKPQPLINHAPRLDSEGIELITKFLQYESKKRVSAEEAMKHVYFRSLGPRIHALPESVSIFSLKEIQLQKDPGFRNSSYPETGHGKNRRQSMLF", "experiment": "Inhibition of DNA-tagged human PCTK2 assessed as percent of control at 50000 nM by qPCR analysis relative to control"}, "[11]": {"molecular_target": "Mitogen-activated protein kinase kinase kinase 20 (Homo sapiens) (UniProt Q9NYL2)", "experiment": "Inhibition of DNA-tagged human ZAK assessed as percent of control at 50000 nM by qPCR analysis relative to control"}, "[12]": {"molecular_target": "Tyrosine-protein kinase JAK1 (Homo sapiens) (UniProt P23458)", "experiment": "Inhibition of DNA-tagged human JAK1 JH2 pseudokinase domain assessed as percent of control at 50000 nM by qPCR analysis relative to control"}, "[13]": {"molecular_target": "Vascular endothelial growth factor receptor 1 (Homo sapiens) (UniProt P17948)", "experiment": "Inhibition of DNA-tagged human FLT1 assessed as percent of control at 50000 nM by qPCR analysis relative to control"}, "[14]": {"molecular_target": "Aurora kinase C (Homo sapiens) (UniProt Q9UQB9)", "experiment": "Inhibition of DNA-tagged human AURKC assessed as percent of control at 50000 nM by qPCR analysis relative to control"}, "[15]": {"tested_on": "Epidermal growth factor receptor (Homo sapiens), P00533 [UNDEFINED MUTATION]", "experiment": "Inhibition of DNA-tagged human EGFR L747-T751del/Sins double mutant assessed as percent of control at 50000 nM by qPCR analysis relative to control"}, "[16]": {"molecular_target": "Receptor-type tyrosine-protein kinase FLT3 (Homo sapiens) (UniProt P36888)", "experiment": "Inhibition of DNA-tagged human FLT3 assessed as percent of control at 50000 nM by qPCR analysis relative to control"}, "[17]": {"molecular_target": "Ephrin type-A receptor 4 (Homo sapiens) (UniProt P54764)", "experiment": "Inhibition of DNA-tagged human EPHA4 assessed as percent of control at 50000 nM by qPCR analysis relative to control"}, "[18]": {"tested_on": "Epidermal growth factor receptor (Homo sapiens), P00533 [G719C]", "experiment": "Inhibition of DNA-tagged human EGFR G719C mutant assessed as percent of control at 50000 nM by qPCR analysis relative to control"}, "[19]": {"tested_on": "Tyrosine-protein kinase ABL1 (Homo sapiens), P00519 [UNDEFINED MUTATION]", "experiment": "Inhibition of DNA-tagged non-phosphorylated human ABL1 […] mutant assessed as percent of control at 50000 nM by qPCR analysis relative to control"}, "[20]": {"molecular_target": "Casein kinase II subunit alpha (Homo sapiens) (UniProt P68400)", "sequence (P68400 whole entry, looked up)": "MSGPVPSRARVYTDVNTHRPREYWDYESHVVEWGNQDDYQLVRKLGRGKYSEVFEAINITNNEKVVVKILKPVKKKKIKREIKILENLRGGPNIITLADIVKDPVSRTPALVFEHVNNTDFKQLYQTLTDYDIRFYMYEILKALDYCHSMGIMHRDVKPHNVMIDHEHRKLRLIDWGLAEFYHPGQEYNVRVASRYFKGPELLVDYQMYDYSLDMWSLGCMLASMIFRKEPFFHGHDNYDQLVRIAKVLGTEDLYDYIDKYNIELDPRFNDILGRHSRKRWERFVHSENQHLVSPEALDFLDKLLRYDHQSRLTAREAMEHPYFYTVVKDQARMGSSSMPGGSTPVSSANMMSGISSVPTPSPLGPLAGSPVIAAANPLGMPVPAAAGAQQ", "experiment": "Inhibition of DNA-tagged human CSNK2A1 assessed as percent of control at 50000 nM by qPCR analysis relative to control"}, "[21]": {"molecular_target": "Serine/threonine-protein kinase TAO3 (Homo sapiens) (UniProt Q9H2K8)", "experiment": "Inhibition of DNA-tagged human TAOK3 assessed as percent of control at 50000 nM by qPCR analysis relative to control"}, "[22]": {"molecular_target": "Tyrosine-protein kinase receptor TYRO3 (Homo sapiens) (UniProt Q06418)", "experiment": "Inhibition of DNA-tagged human TYRO3 assessed as percent of control at 50000 nM by qPCR analysis relative to control"}, "[23]": {"molecular_target": "Cyclin-dependent kinase 8 (Homo sapiens) (UniProt P49336)", "sequence (P49336 whole entry)": "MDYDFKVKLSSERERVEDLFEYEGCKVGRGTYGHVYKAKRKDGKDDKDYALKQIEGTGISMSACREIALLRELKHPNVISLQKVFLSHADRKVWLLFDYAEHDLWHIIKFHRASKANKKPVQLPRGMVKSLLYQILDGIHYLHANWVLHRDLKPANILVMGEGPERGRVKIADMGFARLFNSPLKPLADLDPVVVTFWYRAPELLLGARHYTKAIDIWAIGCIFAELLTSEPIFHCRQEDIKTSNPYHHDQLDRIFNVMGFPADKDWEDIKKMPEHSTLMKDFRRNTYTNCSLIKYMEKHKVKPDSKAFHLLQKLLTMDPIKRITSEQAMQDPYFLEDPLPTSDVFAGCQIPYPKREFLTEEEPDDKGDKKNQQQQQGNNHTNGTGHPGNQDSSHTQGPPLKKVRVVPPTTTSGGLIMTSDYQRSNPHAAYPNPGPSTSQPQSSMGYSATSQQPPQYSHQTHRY", "experiment": "Inhibition of DNA-tagged human CDK8 assessed as percent of control at 50000 nM by qPCR analysis relative to control"}, "[24]": {"molecular_target": "Calcium/calmodulin-dependent protein kinase kinase 2 (Homo sapiens) (UniProt Q96RR4)", "experiment": "Inhibition of DNA-tagged human CAMKK2 assessed as percent of control at 50000 nM by qPCR analysis relative to control"}, "[25]": {"molecular_target": "Protein-tyrosine kinase 2-beta (Homo sapiens) (UniProt Q14289)", "sequence (Q14289 whole entry, looked up)": "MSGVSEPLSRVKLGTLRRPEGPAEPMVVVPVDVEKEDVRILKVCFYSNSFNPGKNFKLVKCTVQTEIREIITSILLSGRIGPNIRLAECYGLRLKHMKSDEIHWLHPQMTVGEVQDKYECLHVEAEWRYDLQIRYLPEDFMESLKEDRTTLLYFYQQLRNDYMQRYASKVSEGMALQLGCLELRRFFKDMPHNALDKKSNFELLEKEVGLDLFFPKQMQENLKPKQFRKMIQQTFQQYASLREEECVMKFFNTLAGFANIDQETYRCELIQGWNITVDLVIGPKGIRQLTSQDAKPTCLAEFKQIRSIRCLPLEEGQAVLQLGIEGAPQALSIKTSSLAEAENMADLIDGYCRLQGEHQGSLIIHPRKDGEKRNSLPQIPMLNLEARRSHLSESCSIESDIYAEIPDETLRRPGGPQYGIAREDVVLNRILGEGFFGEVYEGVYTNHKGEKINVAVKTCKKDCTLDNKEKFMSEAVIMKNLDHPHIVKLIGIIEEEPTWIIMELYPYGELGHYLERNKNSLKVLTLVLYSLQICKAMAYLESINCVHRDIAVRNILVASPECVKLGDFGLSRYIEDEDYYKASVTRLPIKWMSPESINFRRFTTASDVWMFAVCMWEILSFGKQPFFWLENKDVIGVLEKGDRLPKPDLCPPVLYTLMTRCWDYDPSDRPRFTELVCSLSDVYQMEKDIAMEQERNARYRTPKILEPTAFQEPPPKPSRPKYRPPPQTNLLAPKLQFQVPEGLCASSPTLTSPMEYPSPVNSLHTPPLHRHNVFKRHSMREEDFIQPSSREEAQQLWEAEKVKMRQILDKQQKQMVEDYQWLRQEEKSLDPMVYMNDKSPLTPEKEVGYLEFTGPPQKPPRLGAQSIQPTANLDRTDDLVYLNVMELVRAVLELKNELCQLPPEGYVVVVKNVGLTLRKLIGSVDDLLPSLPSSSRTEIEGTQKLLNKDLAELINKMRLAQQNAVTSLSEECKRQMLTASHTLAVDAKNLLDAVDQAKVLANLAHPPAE", "experiment": "Inhibition of DNA-tagged human PYK2 assessed as percent of control at 50000 nM by qPCR analysis relative to control"}, "[26]": {"molecular_target": "Serine/threonine-protein kinase DCLK2 (Homo sapiens) (UniProt Q8N568)", "sequence (Q8N568 whole entry)": "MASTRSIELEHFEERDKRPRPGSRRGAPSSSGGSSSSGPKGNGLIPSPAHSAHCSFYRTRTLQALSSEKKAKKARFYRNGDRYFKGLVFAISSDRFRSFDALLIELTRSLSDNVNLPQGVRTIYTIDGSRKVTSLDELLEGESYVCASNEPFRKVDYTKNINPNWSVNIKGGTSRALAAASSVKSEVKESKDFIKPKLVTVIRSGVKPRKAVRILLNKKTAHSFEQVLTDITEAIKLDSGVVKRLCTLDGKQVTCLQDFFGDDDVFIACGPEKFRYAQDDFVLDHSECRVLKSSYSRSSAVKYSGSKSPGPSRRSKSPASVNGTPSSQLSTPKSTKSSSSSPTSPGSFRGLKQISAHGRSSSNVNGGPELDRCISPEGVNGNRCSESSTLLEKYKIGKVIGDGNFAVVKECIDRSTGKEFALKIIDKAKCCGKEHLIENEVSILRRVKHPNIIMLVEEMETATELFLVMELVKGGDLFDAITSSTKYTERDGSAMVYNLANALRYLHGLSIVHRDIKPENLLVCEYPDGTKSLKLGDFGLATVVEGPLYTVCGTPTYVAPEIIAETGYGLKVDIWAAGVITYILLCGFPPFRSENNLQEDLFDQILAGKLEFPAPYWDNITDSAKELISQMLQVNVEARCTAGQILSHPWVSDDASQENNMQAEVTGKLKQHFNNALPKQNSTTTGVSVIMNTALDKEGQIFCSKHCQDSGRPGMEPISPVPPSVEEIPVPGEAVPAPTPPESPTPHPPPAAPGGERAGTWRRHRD", "experiment": "Inhibition of DNA-tagged human DCAMKL2 assessed as percent of control at 50000 nM by qPCR analysis relative to control"}, "[27]": {"molecular_target": "Ephrin type-A receptor 5 (Homo sapiens) (UniProt P54756)", "experiment": "Inhibition of DNA-tagged human EPHA5 assessed as percent of control at 50000 nM by qPCR analysis relative to control"}, "[28]": {"molecular_target": "Serine/threonine-protein kinase 38 (Homo sapiens) (UniProt Q15208)", "experiment": "Inhibition of DNA-tagged human NDR1 assessed as percent of control at 50000 nM by qPCR analysis relative to control"}, "[29]": {"molecular_target": "Tyrosine-protein kinase Lyn (Homo sapiens) (UniProt P07948)", "experiment": "Inhibition of DNA-tagged human LYN assessed as percent of control at 50000 nM by qPCR analysis relative to control"}},
  "data": [
    {"smiles": "CN1C(=O)/C(=C2/C(=O)Nc3ccccc32)c2ccccc21", "values": [
      {"measurement": "Activity", "setting": "[1]", "value": 92, "unit": "%"},
      {"measurement": "Activity", "setting": "[2]", "value": 100, "unit": "%"},
      {"measurement": "Activity", "setting": "[3]", "value": 100, "unit": "%"},
      {"measurement": "Activity", "setting": "[4]", "value": 100, "unit": "%"},
      {"measurement": "Activity", "setting": "[5]", "value": 100, "unit": "%"},
      {"measurement": "Activity", "setting": "[6]", "value": 100, "unit": "%"},
      {"measurement": "Activity", "setting": "[7]", "value": 100, "unit": "%"},
      {"measurement": "Activity", "setting": "[8]", "value": 91, "unit": "%"},
      {"measurement": "Activity", "setting": "[9]", "value": 80, "unit": "%"},
      {"measurement": "Activity", "setting": "[10]", "value": 96, "unit": "%"},
      {"measurement": "Activity", "setting": "[11]", "value": 80, "unit": "%"},
      {"measurement": "Activity", "setting": "[12]", "value": 100, "unit": "%"},
      {"measurement": "Activity", "setting": "[13]", "value": 93, "unit": "%"},
      {"measurement": "Activity", "setting": "[14]", "value": 94, "unit": "%"},
      {"measurement": "Activity", "setting": "[15]", "value": 87, "unit": "%"},
      {"measurement": "Activity", "setting": "[16]", "value": 79, "unit": "%"},
      {"measurement": "Activity", "setting": "[17]", "value": 100, "unit": "%"},
      {"measurement": "Activity", "setting": "[18]", "value": 89, "unit": "%"},
      {"measurement": "Activity", "setting": "[19]", "value": 100, "unit": "%"},
      {"measurement": "Activity", "setting": "[20]", "value": 79, "unit": "%"},
      {"measurement": "Activity", "setting": "[21]", "value": 85, "unit": "%"},
      {"measurement": "Activity", "setting": "[22]", "value": 77, "unit": "%"},
      {"measurement": "Activity", "setting": "[23]", "value": 100, "unit": "%"},
      {"measurement": "Activity", "setting": "[24]", "value": 100, "unit": "%"},
      {"measurement": "Activity", "setting": "[25]", "value": 100, "unit": "%"},
      {"measurement": "Activity", "setting": "[26]", "value": 93, "unit": "%"},
      {"measurement": "Activity", "setting": "[27]", "value": 96, "unit": "%"},
      {"measurement": "Activity", "setting": "[28]", "value": 87, "unit": "%"},
      {"measurement": "Activity", "setting": "[29]", "value": 100, "unit": "%"}
    ]}
  ]
}
